The text below walks through data of ChEMBL document CHEMBL1148986, “Scalarane metabolites of the nudibranch Glossodoris rufomarginata and Its dietary sponge from the South China Sea” (J Nat Prod, 2004).

The structures appear in SMILES notation.

The test system of this data set is Gambusia affinis. The experiment in a line: Ichthyotoxicity against Gambusia affinis at 10 ppm. In kind it is organism-based. The following applies: in vivo.
For the molecule `CC1(C)CCC[C@]2(C)[C@H]3CC(=O)[C@]4(C)[C@@H]5C(=CC[C@H]4[C@]3(C)CC[C@@H]12)CO[C@H]5O`, the Activity result is recorded as “Toxic”.

Regarding `CC(=O)O[C@@H]1OCC2=CC[C@H]3[C@]4(C)CC[C@H]5C(C)(C)CCC[C@]5(C)[C@H]4CC(=O)[C@]3(C)[C@H]21`, the Activity result is given as “Toxic”.

Regarding `CC1(C)CCC[C@]2(C)[C@H]3CC(=O)[C@]4(C)[C@@H](C=O)C(C=O)=CC[C@H]4[C@]3(C)CC[C@@H]12`, the Activity entry was “Toxic”.

As to `CC(=O)O[C@H]1C[C@@H]2[C@@]3(C)CCCC(C)(C)[C@@H]3CC[C@@]2(C)[C@@H]2CC=C3CO[C@@H](O)[C@@H]3[C@@]12C`, the Activity entry is on record as “Toxic”.

Take `CC1(C)CCC[C@]2(C)[C@H]3C[C@H](O)[C@]4(C)[C@@H](C=O)C(C=O)=CC[C@H]4[C@]3(C)CC[C@@H]12`: the Activity result is “Toxic”.

As for `CC(=O)O[C@@H]1OCC2=CC[C@H]3[C@]4(C)CC[C@H]5C(C)(C)CCC[C@]5(C)[C@H]4C[C@H](OC(C)=O)[C@]3(C)[C@H]21` [DEOXOSCALARIN ACETATE], the Activity result is “Not Active”.

Regarding `CC(=O)O[C@H]1C[C@@H]2[C@@]3(C)CCCC(C)(C)[C@@H]3CC[C@@]2(C)[C@@H]2CC=C(C=O)[C@H](C=O)[C@@]12C` [SCALARADIAL], the Activity result is on record as “Toxic”.
